Data: ChEMBL document CHEMBL5649166, “RIP3 induces apoptosis independent of pronecrotic kinase activity” (Mol Cell, 2014)

Tests used:
[1] = target: Fibroblast growth factor receptor 4 (Homo sapiens) (UniProt P22455); assay: Inhibition of human FGFR4 using poly[Glu:Tyr] (4:1) as substrate at 1 uM in presence of 32P-ATP by Hotspot assay relative to control; values are per cent of control
[2] = target: T1, Activin receptor type-1B (Homo sapiens) (UniProt P36896); assay: Residual activity of human ALK4/ACVR1B using casein as substrate at 1 uM in presence of 32P-ATP by Hotspot assay relative to control
T1 sequence (whole entry): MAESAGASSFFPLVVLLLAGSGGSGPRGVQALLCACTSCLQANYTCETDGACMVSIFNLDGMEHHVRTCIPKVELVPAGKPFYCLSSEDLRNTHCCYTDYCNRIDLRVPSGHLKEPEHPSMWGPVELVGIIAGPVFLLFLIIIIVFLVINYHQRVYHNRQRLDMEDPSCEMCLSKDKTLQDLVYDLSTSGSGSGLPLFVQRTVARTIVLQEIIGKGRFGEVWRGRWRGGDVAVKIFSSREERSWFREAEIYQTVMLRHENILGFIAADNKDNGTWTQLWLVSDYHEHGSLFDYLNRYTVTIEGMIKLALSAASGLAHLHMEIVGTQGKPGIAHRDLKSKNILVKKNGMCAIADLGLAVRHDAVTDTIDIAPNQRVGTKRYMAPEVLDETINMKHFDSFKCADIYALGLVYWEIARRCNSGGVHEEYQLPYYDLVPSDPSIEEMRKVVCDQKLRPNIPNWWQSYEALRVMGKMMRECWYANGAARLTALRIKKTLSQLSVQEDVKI

[3] = target: Mast/stem cell growth factor receptor Kit (Homo sapiens) (UniProt P10721); assay: Residual activity of human c-Kit using poly[Glu:Tyr] (4:1) as substrate at 1 uM in presence of 32P-ATP by Hotspot assay relative to control
[4] = target: Serine/threonine-protein kinase PAK 2 (Homo sapiens) (UniProt Q13177); assay: Inhibition of human PAK2 using RRRLSFAEPG as substrate at 1 uM in presence of 32P-ATP by Hotspot assay relative to control; values are per cent of control
[5] = target: T2, Discoidin domain-containing receptor 2 (Homo sapiens) (UniProt Q16832); assay: Inhibition of human DDR2 using KKSRGDYMTMQIG as substrate at 1 uM in presence of 32P-ATP by Hotspot assay relative to control; values are per cent of control
T2 sequence (whole entry): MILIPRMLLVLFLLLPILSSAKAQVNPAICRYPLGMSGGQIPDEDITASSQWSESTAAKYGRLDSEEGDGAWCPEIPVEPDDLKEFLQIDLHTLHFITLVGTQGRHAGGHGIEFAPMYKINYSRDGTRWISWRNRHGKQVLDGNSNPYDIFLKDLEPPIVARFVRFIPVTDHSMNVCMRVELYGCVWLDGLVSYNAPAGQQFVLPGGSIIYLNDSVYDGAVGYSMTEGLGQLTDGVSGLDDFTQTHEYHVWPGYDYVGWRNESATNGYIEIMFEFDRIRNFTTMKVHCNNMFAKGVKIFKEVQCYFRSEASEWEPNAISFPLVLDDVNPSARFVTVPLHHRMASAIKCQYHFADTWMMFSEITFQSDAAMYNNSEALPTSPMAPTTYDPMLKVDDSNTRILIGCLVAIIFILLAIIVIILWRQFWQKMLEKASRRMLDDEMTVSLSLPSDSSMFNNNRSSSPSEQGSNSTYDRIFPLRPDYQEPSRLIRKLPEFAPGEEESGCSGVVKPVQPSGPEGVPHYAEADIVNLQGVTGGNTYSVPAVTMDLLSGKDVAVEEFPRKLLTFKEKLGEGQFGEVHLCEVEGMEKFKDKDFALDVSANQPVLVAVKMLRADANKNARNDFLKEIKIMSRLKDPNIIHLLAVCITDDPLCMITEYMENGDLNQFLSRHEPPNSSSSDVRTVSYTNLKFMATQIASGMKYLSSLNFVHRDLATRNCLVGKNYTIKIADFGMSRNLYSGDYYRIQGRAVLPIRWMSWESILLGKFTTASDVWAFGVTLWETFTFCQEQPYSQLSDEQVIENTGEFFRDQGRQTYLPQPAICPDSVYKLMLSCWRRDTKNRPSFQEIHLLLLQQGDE

[6] = target: Casein kinase I isoform epsilon (Homo sapiens) (UniProt P49674); assay: Inhibition of human CK1epsilon using KRRRAL[pS]VASLPGL as substrate at 1 uM in presence of 32P-ATP by Hotspot assay relative to control; values are per cent of control
[7] = target: Protein kinase C beta type (Homo sapiens) (UniProt P05771); assay: Inhibition of human PKCb1 using ERMRPRKRQGSVRRRV as substrate at 1 uM in presence of 32P-ATP by Hotspot assay relative to control; values are per cent of control
Protein kinase C beta type (Homo sapiens), sequence (P05771 2-671 limits assumed): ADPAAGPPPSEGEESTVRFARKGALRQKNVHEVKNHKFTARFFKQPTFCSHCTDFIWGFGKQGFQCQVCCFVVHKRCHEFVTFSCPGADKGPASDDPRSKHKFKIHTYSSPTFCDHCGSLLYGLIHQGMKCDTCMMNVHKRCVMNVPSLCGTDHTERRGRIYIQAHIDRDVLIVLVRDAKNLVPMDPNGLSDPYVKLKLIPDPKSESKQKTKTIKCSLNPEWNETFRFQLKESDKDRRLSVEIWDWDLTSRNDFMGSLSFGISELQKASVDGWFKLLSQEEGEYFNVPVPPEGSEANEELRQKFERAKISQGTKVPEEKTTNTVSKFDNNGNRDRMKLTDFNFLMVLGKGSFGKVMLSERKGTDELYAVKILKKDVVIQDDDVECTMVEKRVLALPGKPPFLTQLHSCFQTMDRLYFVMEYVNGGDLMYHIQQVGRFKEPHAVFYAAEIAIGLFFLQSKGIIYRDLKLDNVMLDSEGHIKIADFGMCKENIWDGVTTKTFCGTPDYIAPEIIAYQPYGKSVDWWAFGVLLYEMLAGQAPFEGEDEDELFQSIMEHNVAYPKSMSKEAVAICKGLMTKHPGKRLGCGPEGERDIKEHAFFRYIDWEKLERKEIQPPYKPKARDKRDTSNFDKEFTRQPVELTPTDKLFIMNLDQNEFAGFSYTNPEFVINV

Mast/stem cell growth factor receptor Kit (Homo sapiens), sequence (P10721 whole entry): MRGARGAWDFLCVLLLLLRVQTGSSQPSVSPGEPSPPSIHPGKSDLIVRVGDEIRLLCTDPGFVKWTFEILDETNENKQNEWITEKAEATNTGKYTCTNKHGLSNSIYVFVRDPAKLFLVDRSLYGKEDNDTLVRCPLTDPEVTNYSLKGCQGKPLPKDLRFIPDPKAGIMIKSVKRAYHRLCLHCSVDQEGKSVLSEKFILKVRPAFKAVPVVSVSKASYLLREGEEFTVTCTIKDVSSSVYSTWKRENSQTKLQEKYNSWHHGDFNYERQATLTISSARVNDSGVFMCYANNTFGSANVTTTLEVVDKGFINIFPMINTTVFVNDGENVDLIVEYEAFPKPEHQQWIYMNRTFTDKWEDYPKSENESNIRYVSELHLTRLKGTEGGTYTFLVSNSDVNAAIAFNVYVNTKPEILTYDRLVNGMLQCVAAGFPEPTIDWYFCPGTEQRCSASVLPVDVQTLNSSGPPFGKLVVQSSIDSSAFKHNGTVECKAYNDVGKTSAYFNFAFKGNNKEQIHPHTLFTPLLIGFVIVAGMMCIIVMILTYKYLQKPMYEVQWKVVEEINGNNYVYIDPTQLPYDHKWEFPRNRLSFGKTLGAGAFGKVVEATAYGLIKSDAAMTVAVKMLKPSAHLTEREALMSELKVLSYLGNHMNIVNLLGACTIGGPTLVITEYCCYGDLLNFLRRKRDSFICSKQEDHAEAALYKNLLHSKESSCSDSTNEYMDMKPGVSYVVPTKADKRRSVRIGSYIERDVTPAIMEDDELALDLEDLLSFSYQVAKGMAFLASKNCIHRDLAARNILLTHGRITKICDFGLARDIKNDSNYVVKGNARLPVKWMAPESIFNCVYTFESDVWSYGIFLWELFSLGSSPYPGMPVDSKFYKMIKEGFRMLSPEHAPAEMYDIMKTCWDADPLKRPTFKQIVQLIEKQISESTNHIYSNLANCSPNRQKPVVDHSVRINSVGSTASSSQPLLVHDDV
Casein kinase I isoform epsilon (Homo sapiens), sequence (P49674 whole entry, looked up, canonical isoform): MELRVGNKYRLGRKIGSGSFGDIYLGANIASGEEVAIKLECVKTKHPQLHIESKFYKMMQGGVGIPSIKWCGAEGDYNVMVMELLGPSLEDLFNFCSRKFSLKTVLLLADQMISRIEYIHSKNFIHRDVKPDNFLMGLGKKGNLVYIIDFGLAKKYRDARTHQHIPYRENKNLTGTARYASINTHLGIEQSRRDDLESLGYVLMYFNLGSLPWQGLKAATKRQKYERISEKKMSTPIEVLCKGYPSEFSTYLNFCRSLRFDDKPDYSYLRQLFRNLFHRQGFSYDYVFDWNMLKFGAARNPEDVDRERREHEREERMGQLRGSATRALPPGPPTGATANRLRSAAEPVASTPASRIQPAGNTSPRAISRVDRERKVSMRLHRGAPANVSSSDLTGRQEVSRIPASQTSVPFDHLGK
Serine/threonine-protein kinase PAK 2 (Homo sapiens), sequence (Q13177 whole entry, the tested form may be a part): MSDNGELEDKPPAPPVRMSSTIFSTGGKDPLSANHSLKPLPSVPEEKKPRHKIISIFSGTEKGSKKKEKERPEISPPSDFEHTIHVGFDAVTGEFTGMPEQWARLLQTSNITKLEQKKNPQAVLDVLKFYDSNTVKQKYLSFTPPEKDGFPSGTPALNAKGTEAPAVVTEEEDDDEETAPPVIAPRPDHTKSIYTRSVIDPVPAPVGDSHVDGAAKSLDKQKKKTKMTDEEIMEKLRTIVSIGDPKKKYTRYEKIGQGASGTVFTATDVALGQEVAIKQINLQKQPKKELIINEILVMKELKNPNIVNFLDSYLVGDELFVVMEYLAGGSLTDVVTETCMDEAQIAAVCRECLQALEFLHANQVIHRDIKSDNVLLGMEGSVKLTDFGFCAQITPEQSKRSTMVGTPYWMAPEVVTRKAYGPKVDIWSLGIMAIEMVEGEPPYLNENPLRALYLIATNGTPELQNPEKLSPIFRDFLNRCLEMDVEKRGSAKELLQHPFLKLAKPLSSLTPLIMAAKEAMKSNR
Fibroblast growth factor receptor 4 (Homo sapiens), sequence (P22455 22-802 limits assumed): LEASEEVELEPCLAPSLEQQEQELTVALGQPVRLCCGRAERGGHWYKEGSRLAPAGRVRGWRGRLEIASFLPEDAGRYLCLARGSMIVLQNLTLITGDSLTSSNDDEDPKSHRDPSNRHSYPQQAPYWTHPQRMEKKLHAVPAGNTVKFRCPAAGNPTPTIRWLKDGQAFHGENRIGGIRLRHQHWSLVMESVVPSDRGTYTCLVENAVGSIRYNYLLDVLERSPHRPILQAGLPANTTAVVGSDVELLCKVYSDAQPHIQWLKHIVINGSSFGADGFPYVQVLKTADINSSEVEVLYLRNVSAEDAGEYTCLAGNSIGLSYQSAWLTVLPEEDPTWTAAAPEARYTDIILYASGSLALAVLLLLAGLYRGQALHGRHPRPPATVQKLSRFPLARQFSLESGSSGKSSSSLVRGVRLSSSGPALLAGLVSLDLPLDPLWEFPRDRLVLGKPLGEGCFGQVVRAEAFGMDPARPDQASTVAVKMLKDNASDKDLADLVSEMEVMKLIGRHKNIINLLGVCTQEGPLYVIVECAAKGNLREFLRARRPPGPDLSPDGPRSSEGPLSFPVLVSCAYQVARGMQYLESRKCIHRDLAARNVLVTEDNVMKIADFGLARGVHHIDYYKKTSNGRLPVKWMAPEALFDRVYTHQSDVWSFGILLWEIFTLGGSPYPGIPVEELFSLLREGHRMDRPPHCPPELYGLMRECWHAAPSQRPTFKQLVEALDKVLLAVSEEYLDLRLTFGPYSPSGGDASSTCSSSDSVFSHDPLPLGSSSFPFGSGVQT

Row | Compound | residual activity [1] | residual activity [2] | residual activity [3] | residual activity [4] | residual activity [5] | residual activity [6] | residual activity [7]
1 | CC(C)S(=O)(=O)c1ccc2nccc(Nc3ccc4scnc4c3)c2c1 | 77.6% | 100% | 95.8% | 101% | 102% | 106% | 96.3%
2 | Cc1cc(-c2cnc(N)c3c(-c4ccc5scnc5c4)csc23)n(C)n1 | 47.4% | 96.8% | 41.5% | 96.2% | 88.8% | 73% | 96.1%
3 | CNC(=O)c1ccc2c(c1)ncn2-c1ccc(CC(=O)OC(C)(C)C)cc1 | 93.4% | 93.9% | 74.4% | 91% | 98.7% | 94.2% | 95%
